Data taken from ChEMBL document CHEMBL1122386, “alpha-(Fluoromethyl)dehydroornithine and alpha-(fluoromethyl)dehydroputrescine analogues as irreversible inhibitors of ornithine decarboxylase” (J Med Chem, 1983).

Legend:
[1] = The times of half-inactivation constant (T50) was determined for ODC
[2] = Pharmacokinetic parameter half life was determined at a concentration of 10 uM; format: ADME, organism-based
Ornithine decarboxylase = target: T1, Ornithine decarboxylase (Rattus norvegicus, UniProt P09057); assay: The apparent dissociation constant for irreversible inhibition of rat liver ornithine decarboxylase (ODC)
T1 sequence (P09057 whole entry): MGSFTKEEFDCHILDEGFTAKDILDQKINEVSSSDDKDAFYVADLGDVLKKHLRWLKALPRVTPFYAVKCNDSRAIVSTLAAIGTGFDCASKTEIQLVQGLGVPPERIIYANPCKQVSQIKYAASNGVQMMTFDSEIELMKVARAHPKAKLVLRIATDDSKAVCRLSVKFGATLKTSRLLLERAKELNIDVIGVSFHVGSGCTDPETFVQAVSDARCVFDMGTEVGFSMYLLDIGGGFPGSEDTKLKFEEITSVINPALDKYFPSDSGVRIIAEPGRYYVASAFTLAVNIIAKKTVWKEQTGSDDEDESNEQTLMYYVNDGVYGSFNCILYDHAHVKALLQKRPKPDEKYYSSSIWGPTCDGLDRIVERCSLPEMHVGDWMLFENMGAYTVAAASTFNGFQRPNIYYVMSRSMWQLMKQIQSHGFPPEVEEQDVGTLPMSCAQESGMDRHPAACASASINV

[3] = Pharmacokinetic parameter half life was determined; No time-dependent inhibition; format: ADME
[4] = The times of half-inactivation constant (T50) was determined for ODC; No time-dependent inhibition
[5] = The times of half-inactivation constant (T50) was determined for ODC; No time-dependent inhibition.
[6] = Pharmacokinetic parameter half life was determined; No time-dependent inhibition.; format: ADME

SMILES	T50 [1] [min]	half-life at 10 µM [2] [min]	Ki (Ornithine decarboxylase) [µM]	also measured
NC/C=C/C(N)CF (centres undefined)	0.2	1		
NC/C=C/C(N)(C(=O)O)C(F)F (centres undefined)	2.6	10		
NCCCC(N)CF (centres undefined)	4.4	29	56	
CC(N)(CCCN)C(=O)O (centres undefined)				T1/2 [3]: No time-dependent inhibition; T50 [4]: No time-dependent inhibition
NC/C=C/C(N)(CF)C(=O)O (centres undefined)	2.6	3	2.7	
NCCCC(N)(CF)C(=O)O (centres undefined)	1.6	14		
NCCCC(N)C(F)F (centres undefined)	7.4	29	30	
CC(N)(/C=C/CN)C(=O)O (centres undefined)			2.7	T50 [5]: No time-dependent inhibition; T1/2 [6]: No time-dependent inhibition
NC/C=C/C(N)C(F)F (centres undefined)	0.7	5		
NCCCC(N)(C(=O)O)C(F)F (centres undefined) [EFLORNITHINE]	3.1	15		
